Data from EP0607373B1, “TRISUBSTITUTED PHENYL DERIVATIVES AS SELECTIVE PHOSPHODIESTERASE IV INHIBITORS” (CELLTECH THERAPEUTICS LIMITED, priority 1992, dated 1993).

Columns and labels:
PDE IV, HL60 cells = experiment: Isolated enzyme phosphodiesterase assay, PDE IV; format: biochemical; conditions: 0.1µM [3H]-cAMP, 30°C, pH 7.5, read-out: approximate Ki values (Ki PDE IV HL60 at (1µM))
Protocol: The potency and selectivity of the compounds of the invention was determined using a battery of distinct PDE isoenzymes as follows: • i. PDE I, rabbit heart • ii. PDE II, rabbit heart • iii. PDE III, rabbit heart • iv. PDE IV, HL60 cells.
The enzymes were purified to kinetic homogeneity using standard chromatographic techniques.
Phosphodiesterase activity was assayed as follows. The reaction was conducted in 150µl of standard mixture containing (final concentrations): 50mM TES-NaOH buffer (pH 7.5), 10mM MgCl2, 0.1µM [^3H]-cAMP and vehicle or various concentrations of the test compounds. The reaction was initiated by addition of enzyme and conducted at 30°C for between 5 to 30 mins. The reaction was terminated by addition of 50µl 2% trifluoroacetic acid containing [^14C]-5'AMP for determining recovery of the product. An aliquot of the sample was then applied to a column of neutral alumina and the [^3H]-cAMP eluted with 10ml 0.1 TES-NaOH buffer (pH8). The [^3H]-5'-AMP product was eluted with 2ml 2M NaOH into a scintillation vial containing 10ml of scintillation cocktail. Recovery of [^3H]-5'AMP was determined using the [^14C]-5'AMP and all assays were conducted in the linear range of the reaction.

[1] = system: Right atrial and papillary muscles; conditions: reference inhibitors, general statement on these preparations; cited from earlier work

Structure (SMILES) | Ki (PDE IV, HL60 cells) [nM] | direct effects on isolated cardiac muscle (chronotropic, inotropic) [1]
COc1ccc(NC(=O)c2ccccc2)cc1OC1CCCC1 [Example 1, N-Benzoyl-3-cyclopentyloxy-4-methyloxyaniline] | ~391 | –
COc1ccc(NC(=O)c2ccccc2[N+](=O)[O-])cc1OC1CCCC1 [Example 3, 3-Cyclopentyloxy-4-methyloxy-N-(2-Nitrobenzoyl)aniline] | ~179 | –
Cc1[nH]c(=O)c(C#N)cc1-c1ccncc1 [milrinone] | – | positive chronotropic and inotropic effects
COc1ccc(C2CNC(=O)C2)cc1OC1CCCC1 (stereo not shown) [rolipram] | – | do not have any direct effects
